Laboratory results: PubChem BioAssay AID1259411 (Chemical Carcinogenesis Research Information System (CCRIS), 2018)
Active and inactive are the calls of the source. The rule behind the calls is not given here.

Tested on: rodent carcinogenicity bioassays, tumor incidence
Test: CCRIS carcinogenicity studies
Summary of the method: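 Archive of carcinogenicity, mutagenicity, tumor promotion and tumor inhibition results drawn from journals, NCI reports and other sources, expert-reviewed; covers 1985-2011 and is no longer updated.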

Cc1c2ccccc2cc2c1ccc1ccccc12
carcinogen call (Species: MOUSE, Strain/Sex: ALBINO/FEMALE, Route: DERMAL, Dose: 70 UG IN 0.025 ML ACETONE 2/WK FOR 20 WK, Tumor Site: Type of Lesion: INTEGUMENTARY SYSTEM (SKIN): CARCINOMA): active; positive | carcinogen call (Species: MOUSE, Strain/Sex: ALBINO/FEMALE, Route: SUBCUTANEOUS, Dose: 0.1 ML OF 1 MG IN TRICAPRYLIN ONCE, Tumor Site: Type of Lesion: INJECTION SITE: SARCOMA): active; positive | carcinogen call (Species: MOUSE, Strain/Sex: ALBINO/FEMALE, Route: SUBCUTANEOUS, Dose: 0.25, 1.0 MG IN 0.1 ML TRICAPRYLIN ONCE, Tumor Site: Type of Lesion: INJECTION SITE: SARCOMA): active; positive | carcinogen call (Species: MOUSE, Strain/Sex: C57BL/MALE,FEMALE, Route: SUBCUTANEOUS, Dose: 1 MG IN 0.1 ML ARACHIS OIL 1/WK FOR 10 WK, Tumor Site: Type of Lesion: INJECTION SITE): active; positive | carcinogen call (Species: RAT, Strain/Sex: ALBINO/MALE, Route: SUBCUTANEOUS, Dose: 2.0 MG IN 0.25 ML TRICAPRYLIN ONCE, Tumor Site: Type of Lesion: INJECTION SITE: SARCOMA): active; positive | carcinogen call (Species: RAT, Strain/Sex: F344/MALE,FEMALE, Route: SUBCUTANEOUS, Dose: 2 MG IN 0.2 ML PARAFFIN SOLN (TOTAL DOSE 4 MG/RAT), Tumor Site: Type of Lesion: INJECTION SITE: FIBROSARCOMA): active; positive | carcinogen call (Species: RAT, Strain/Sex: HOLTZMAN/MALE, Route: SUBCUTANEOUS, Dose: 0.25 ML OF 2 MG IN TRICAPRYLIN ONCE, Tumor Site: Type of Lesion: INJECTION SITE: SARCOMA): active; positive | carcinogen call (Species: RAT, Strain/Sex: LONG-EVANS/MALE, Route: INTRAMUSCULAR, Dose: 2.5 MG IN 0.5 ML SESAME OIL ONCE, Tumor Site: Type of Lesion: INJECTION SITE: SARCOMA): active; positive

S=C(NC1CCCCC1)NC1CCCCC1
carcinogen call (Species: MOUSE, Strain/Sex: B6C3F1/FEMALE, Route: ORAL, Dose: 0, 25000, 50000 PPM IN DIET, Dose: 0, 25000, 50000 PPM IN DIET): inactive; negative | carcinogen call (Species: MOUSE, Strain/Sex: B6C3F1/MALE, Route: ORAL, Dose: 0, 25000, 50000 PPM IN DIET, Dose: 0, 25000, 50000 PPM IN DIET): inactive; negative | carcinogen call (Species: RAT, Strain/Sex: F344/FEMALE, Route: ORAL, Dose: 0, 25000, 50000 PPM IN DIET, Dose: 0, 25000, 50000 PPM IN DIET): inactive; negative | carcinogen call (Species: RAT, Strain/Sex: F344/MALE, Route: ORAL, Dose: 0, 25000, 50000 PPM IN DIET, Dose: 0, 25000, 50000 PPM IN DIET): inactive; negative

CCOc1ccc(NC(C)=O)cc1
carcinogen call (Species: MOUSE, Strain/Sex: B6C3F1/MALE, Route: ORAL, Dose: 0.6, 1.25% IN DIET, Tumor Site: Type of Lesion: KIDNEY: RENAL CELL ADENOMA, RENAL CELL CARCINOMA): active; positive | carcinogen call (Species: RAT, Strain/Sex: SD/CSHI/MALE, Route: ORAL, Dose: 0, 2% IN DIET FOR 85 WK (STUDY DURATION: 85 WK), Tumor Site: Type of Lesion: RENAL PELVIS: CARCINOMA, PAPILLOMA, URINARY BLADDER: PAPILLOMA): active; positive | carcinogen call (Species: RAT, Strain/Sex: SPRAGUE-DAWLEY/FEMALE, Route: ORAL, Dose: 1.25, 2.5% IN DIET FOR 18 MO, Tumor Site: Type of Lesion: NASAL CAVITY): active; positive | carcinogen call (Species: RAT, Strain/Sex: SPRAGUE-DAWLEY/MALE, Route: ORAL, Dose: 0, 0.535% IN DIET FOR 117 WK, Tumor Site: Type of Lesion: KIDNEY, NASAL CAVITY: SQUAMOUS CELL CARCINOMA): active; positive | carcinogen call (Species: RAT, Strain/Sex: SPRAGUE-DAWLEY/MALE, Route: ORAL, Dose: 1.25, 2.5% IN DIET FOR 18 MO, Tumor Site: Type of Lesion: NASAL CAVITY, URINARY TRACT): active; positive
